Source: PubChem BioAssay (NCI)
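All cell lines were grown in 96-well plates and treated with compound for 48 hours. GI50 marks 50% less growth. Definition used: TGI = concentration required for complete inhibition of growth.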

Tests used:
Test in all cases: NCI anticancer screen, dose series, 48 h
TK-10 renal = tested on: TK-10 renal
SF-295 CNS = tested on: SF-295 CNS
A549 NSCLC = tested on: A549 NSCLC
HOP-62 NSCLC = tested on: HOP-62 NSCLC
SNB-19 CNS = tested on: SNB-19 CNS
SW-620 colon = tested on: SW-620 colon
SR leukemia = tested on: SR leukemia
MALME-3M melanoma = tested on: MALME-3M melanoma
OVCAR-8 ovarian = tested on: OVCAR-8 ovarian
SF-268 CNS = tested on: SF-268 CNS
SNB-75 CNS = tested on: SNB-75 CNS
NCI-H23 lung = tested on: NCI-H23 lung
M14 melanoma = tested on: M14 melanoma
HCT-116 colon = tested on: HCT-116 colon
MOLT-4 leukemia = tested on: MOLT-4 leukemia
UACC-257 melanoma = tested on: UACC-257 melanoma
SK-MEL-5 melanoma = tested on: SK-MEL-5 melanoma
BT-549 breast = tested on: BT-549 breast
HS 578T breast = tested on: HS 578T breast
HCC-2998 colon = tested on: HCC-2998 colon
NCI-H226 lung = tested on: NCI-H226 lung
MCF7 breast = tested on: MCF7 breast
NCI-H522 lung = tested on: NCI-H522 lung
EKVX NSCLC = tested on: EKVX NSCLC
CCRF-CEM leukemia = tested on: CCRF-CEM leukemia
PC-3 prostate = tested on: PC-3 prostate
HCT-15 colon = tested on: HCT-15 colon
MDA-MB-435 = tested on: MDA-MB-435
T-47D breast = tested on: T-47D breast
LOX IMVI melanoma = tested on: LOX IMVI melanoma
UO-31 renal = tested on: UO-31 renal
DU-145 prostate = tested on: DU-145 prostate
IGROV1 ovarian = tested on: IGROV1 ovarian
HOP-92 NSCLC = tested on: HOP-92 NSCLC
OVCAR-3 ovarian = tested on: OVCAR-3 ovarian
SN12C renal = tested on: SN12C renal
NCI-H460 lung = tested on: NCI-H460 lung
KM12 colon = tested on: KM12 colon
HL-60(TB) leukemia = tested on: HL-60(TB) leukemia
MDA-MB-231 breast = tested on: MDA-MB-231 breast
HT29 colon = tested on: HT29 colon
A498 renal = tested on: A498 renal
OVCAR-5 ovarian = tested on: OVCAR-5 ovarian
UACC-62 melanoma = tested on: UACC-62 melanoma
SK-MEL-28 melanoma = tested on: SK-MEL-28 melanoma
SK-OV-3 ovarian = tested on: SK-OV-3 ovarian
U251 CNS = tested on: U251 CNS
RXF 393 renal = tested on: RXF 393 renal
OVCAR-4 ovarian = tested on: OVCAR-4 ovarian
ACHN renal = tested on: ACHN renal
NCI/ADR-RES ovarian = tested on: NCI/ADR-RES ovarian
SF-539 CNS = tested on: SF-539 CNS
SK-MEL-2 melanoma = tested on: SK-MEL-2 melanoma
CAKI-1 renal = tested on: CAKI-1 renal
786-0 renal = tested on: 786-0 renal
K-562 leukemia = tested on: K-562 leukemia
COLO 205 colon = tested on: COLO 205 colon

In the case of CCCNNC(=O)c1ccc(-c2ccc(NC(=O)CCCCCCC(=O)N[C@H](C(=O)N3C[C@H](O)C[C@H]3C(=O)N[C@@H](C)c3ccc(-c4scnc4C)cc3)C(C)(C)C)cc2)cc1, the GI50 (TK-10 renal) is reported as 1.8 µM, the TGI (TK-10 renal) is reported as > 100 µM and the GI50 (SF-295 CNS) is reported as 5.97 µM. The TGI (SF-295 CNS) was > 100 µM, the GI50 (A549 NSCLC) was > 95.1 µM and the TGI (A549 NSCLC) was > 100 µM. The GI50 (HOP-62 NSCLC) was 2.46 µM, the TGI (HOP-62 NSCLC) was > 100 µM and the GI50 (SNB-19 CNS) was 2.62 µM. For the same compound, the TGI (SNB-19 CNS) was > 47.6 µM, the GI50 (SW-620 colon) was 1.28 µM and the TGI (SW-620 colon) was 9.26 µM. For the same compound, the GI50 (SR leukemia) was 0.386 µM, the TGI (SR leukemia) was > 100 µM and the GI50 (MALME-3M melanoma) was 0.457 µM. The TGI (MALME-3M melanoma) was > 20.3 µM, the GI50 (OVCAR-8 ovarian) was 2.98 µM and the TGI (OVCAR-8 ovarian) was > 100 µM. The GI50 (SF-268 CNS) was 3.63 µM, the TGI (SF-268 CNS) was > 100 µM and the GI50 (SNB-75 CNS) was 1.8 µM. For the same compound, the TGI (SNB-75 CNS) was > 100 µM, the GI50 (NCI-H23 lung) was 2.22 µM and the TGI (NCI-H23 lung) was > 100 µM. The GI50 (M14 melanoma) was 2.86 µM, the TGI (M14 melanoma) was > 100 µM and the GI50 (HCT-116 colon) was 0.41 µM. For the same compound, the TGI (HCT-116 colon) was 5.28 µM, the GI50 (MOLT-4 leukemia) was 0.41 µM and the TGI (MOLT-4 leukemia) was > 100 µM. The GI50 (UACC-257 melanoma) was 0.845 µM, the TGI (UACC-257 melanoma) was > 100 µM and the GI50 (SK-MEL-5 melanoma) was 2.08 µM. For the same compound, the TGI (SK-MEL-5 melanoma) was 8.47 µM, the GI50 (BT-549 breast) was 5.29 µM and the TGI (BT-549 breast) was > 100 µM. For the same compound, the GI50 (HS 578T breast) was 1.91 µM, the TGI (HS 578T breast) was > 100 µM and the GI50 (HCC-2998 colon) was 2.05 µM. The TGI (HCC-2998 colon) was 11.1 µM, the GI50 (NCI-H226 lung) was 9.28 µM and the TGI (NCI-H226 lung) was > 100 µM. The GI50 (MCF7 breast) was 0.407 µM, the TGI (MCF7 breast) was > 100 µM and the GI50 (NCI-H522 lung) was 1.12 µM. The TGI (NCI-H522 lung) was > 100 µM, the GI50 (EKVX NSCLC) was > 36.6 µM and the TGI (EKVX NSCLC) was > 100 µM. For the same compound, the GI50 (CCRF-CEM leukemia) was 0.357 µM, the TGI (CCRF-CEM leukemia) was > 100 µM and the GI50 (PC-3 prostate) was 1.25 µM. For the same compound, the TGI (PC-3 prostate) was > 100 µM, the GI50 (HCT-15 colon) was > 100 µM and the TGI (HCT-15 colon) was > 100 µM. For the same compound, the GI50 (MDA-MB-435) was 0.848 µM, the TGI (MDA-MB-435) was > 39.3 µM and the GI50 (T-47D breast) was 0.345 µM. For the same compound, the TGI (T-47D breast) was > 100 µM, the GI50 (LOX IMVI melanoma) was 0.0387 µM and the TGI (LOX IMVI melanoma) was 1.08 µM. The GI50 (UO-31 renal) was > 100 µM, the TGI (UO-31 renal) was > 100 µM and the GI50 (DU-145 prostate) was 2.01 µM. For the same compound, the TGI (DU-145 prostate) was > 100 µM, the GI50 (IGROV1 ovarian) was 0.442 µM and the TGI (IGROV1 ovarian) was > 100 µM. The GI50 (HOP-92 NSCLC) was 0.258 µM, the TGI (HOP-92 NSCLC) was 2.14 µM and the GI50 (OVCAR-3 ovarian) was 0.917 µM. For the same compound, the TGI (OVCAR-3 ovarian) was 12.7 µM, the GI50 (SN12C renal) was 4.21 µM and the TGI (SN12C renal) was > 100 µM. The GI50 (NCI-H460 lung) was 2.63 µM, the TGI (NCI-H460 lung) was > 100 µM and the GI50 (KM12 colon) was 3.34 µM. The TGI (KM12 colon) was > 100 µM, the GI50 (HL-60(TB) leukemia) was 0.394 µM and the TGI (HL-60(TB) leukemia) was > 100 µM. The GI50 (MDA-MB-231 breast) was 1.37 µM, the TGI (MDA-MB-231 breast) was > 65.1 µM and the GI50 (HT29 colon) was 0.893 µM. For the same compound, the TGI (HT29 colon) was > 100 µM, the GI50 (A498 renal) was 1.41 µM and the TGI (A498 renal) was 4.36 µM. For the same compound, the GI50 (OVCAR-5 ovarian) was 1.88 µM, the TGI (OVCAR-5 ovarian) was > 100 µM and the GI50 (UACC-62 melanoma) was 1.44 µM. The TGI (UACC-62 melanoma) was 6.94 µM, the GI50 (SK-MEL-28 melanoma) was 0.599 µM and the TGI (SK-MEL-28 melanoma) was > 100 µM. For the same compound, the GI50 (SK-OV-3 ovarian) was 5.66 µM, the TGI (SK-OV-3 ovarian) was > 100 µM and the GI50 (U251 CNS) was 1.03 µM. The TGI (U251 CNS) was 8.46 µM, the GI50 (RXF 393 renal) was 0.465 µM and the TGI (RXF 393 renal) was 2.37 µM. For the same compound, the GI50 (OVCAR-4 ovarian) was > 100 µM, the TGI (OVCAR-4 ovarian) was > 100 µM and the GI50 (ACHN renal) was > 100 µM. For the same compound, the TGI (ACHN renal) was > 100 µM, the GI50 (NCI/ADR-RES ovarian) was > 100 µM and the TGI (NCI/ADR-RES ovarian) was > 100 µM. For the same compound, the GI50 (SF-539 CNS) was 2.05 µM, the TGI (SF-539 CNS) was > 100 µM and the GI50 (SK-MEL-2 melanoma) was 2.7 µM. For the same compound, the TGI (SK-MEL-2 melanoma) was > 100 µM, the GI50 (CAKI-1 renal) was 7.41 µM and the TGI (CAKI-1 renal) was > 100 µM. For the same compound, the GI50 (786-0 renal) was 5.02 µM, the TGI (786-0 renal) was > 100 µM and the GI50 (K-562 leukemia) was 0.524 µM. For the same compound, the TGI (K-562 leukemia) was > 100 µM, the GI50 (COLO 205 colon) was 0.785 µM and the TGI (COLO 205 colon) was 3.25 µM.
